{
  "source": "patent US6756056B2",
  "about": "“Treatment of Parkinson's disease and related disorders by novel formulations of the combination carbidopa-levodopa” (priority 1997, dated 2004)",
  "origin": "cited, not measured here",
  "conditions": "doses of 400 mg per day",
  "data": [
    {"smiles": "C[C@@](Cc1ccc(O)c(O)c1)(NN)C(=O)O", "note": "[carbidopa]", "values": [
      {"measurement": "Adverse effects", "value": "apparently devoid of adverse effects"}
    ]}
  ]
}
